The target of assay [1] is Human recombinant Acetyl-CoA Carboxylase 1 (ACC1) (Homo sapiens, UniProt Q13085). As to the kind of experiment: Assay X: ACC1 inhibition, inorganic phosphate (malachite green). The format is biochemical. The settings on record: Assay X: 37° C., 1.5 h, 5 min pre-incubation. The protocol:
(§1) Human recombinant Acetyl-CoA Carboxylase 1 and Acetyl-CoA Carboxylase 2 (ACC1 and ACC2) were assayed by determining the amount of inorganic phosphate (Pi) generated. Pre-incubation of 15 μL enzyme together with 0.75 μL DMSO+/−compound for 5 min was done before the reaction was initiated by the addition of 10 μL substrate. […] After 1.5 h the reaction was stopped by addition of 74 μL of water followed by extensive mixing, split and transfer of 2×40 μL to a read-plate encompassing 30 μL distilled H2O per well (n=2→n=4). Colour reaction was initiated by addition of 30 μL malachite green reagent per well and allowed 15 min before absorbance reading of the plates at 660 nm. The malachite green reagent was prepared by mixing 16.4 mL ammonium molybdate solution (7.5%), 1.64 mL Tween (11%) with 82 mL Malachite Green/H2SO4-solution (0.7 g Malachite Green to 1000 mL of 10% (v/v) H2SO4).
(§2) All compounds were tested in triplicate at 10 different concentrations. Control compound (0, 50 and 100% effect) was included on each plate. […] Curve fitting was done using the following equation: y=(A+((B−A)/(1+((x/C)̂D)))) where A and B represents the curve bottom (% inhibition) and the total amplitude (% inhibition), respectively, whereas C and D are the apparent IC50 and curve slope, respectively.

The target in assay [2] is Human recombinant Acetyl-CoA Carboxylase 2 (ACC2) (Homo sapiens, UniProt O00763). As to the kind of experiment: Assay X: ACC2 inhibition, inorganic phosphate (malachite green). The settings on record: Assay X: 37° C., 1.5 h, 5 min pre-incubation. The format is biochemical. The protocol: as §1, §2

Structures are written as SMILES.

Data on 17 compounds can be found in patent publication US20090306133A1, “New Acetyl Coenzyme A Carboxylase (ACC) Inhibitors And Uses In Treatments Of Obesity And Diabetes Mellitus - 087” (ASTRAZENECA AB, priority 2007, published 2009).

Chain of Human recombinant Acetyl-CoA Carboxylase 2 (ACC2) (O00763 whole entry): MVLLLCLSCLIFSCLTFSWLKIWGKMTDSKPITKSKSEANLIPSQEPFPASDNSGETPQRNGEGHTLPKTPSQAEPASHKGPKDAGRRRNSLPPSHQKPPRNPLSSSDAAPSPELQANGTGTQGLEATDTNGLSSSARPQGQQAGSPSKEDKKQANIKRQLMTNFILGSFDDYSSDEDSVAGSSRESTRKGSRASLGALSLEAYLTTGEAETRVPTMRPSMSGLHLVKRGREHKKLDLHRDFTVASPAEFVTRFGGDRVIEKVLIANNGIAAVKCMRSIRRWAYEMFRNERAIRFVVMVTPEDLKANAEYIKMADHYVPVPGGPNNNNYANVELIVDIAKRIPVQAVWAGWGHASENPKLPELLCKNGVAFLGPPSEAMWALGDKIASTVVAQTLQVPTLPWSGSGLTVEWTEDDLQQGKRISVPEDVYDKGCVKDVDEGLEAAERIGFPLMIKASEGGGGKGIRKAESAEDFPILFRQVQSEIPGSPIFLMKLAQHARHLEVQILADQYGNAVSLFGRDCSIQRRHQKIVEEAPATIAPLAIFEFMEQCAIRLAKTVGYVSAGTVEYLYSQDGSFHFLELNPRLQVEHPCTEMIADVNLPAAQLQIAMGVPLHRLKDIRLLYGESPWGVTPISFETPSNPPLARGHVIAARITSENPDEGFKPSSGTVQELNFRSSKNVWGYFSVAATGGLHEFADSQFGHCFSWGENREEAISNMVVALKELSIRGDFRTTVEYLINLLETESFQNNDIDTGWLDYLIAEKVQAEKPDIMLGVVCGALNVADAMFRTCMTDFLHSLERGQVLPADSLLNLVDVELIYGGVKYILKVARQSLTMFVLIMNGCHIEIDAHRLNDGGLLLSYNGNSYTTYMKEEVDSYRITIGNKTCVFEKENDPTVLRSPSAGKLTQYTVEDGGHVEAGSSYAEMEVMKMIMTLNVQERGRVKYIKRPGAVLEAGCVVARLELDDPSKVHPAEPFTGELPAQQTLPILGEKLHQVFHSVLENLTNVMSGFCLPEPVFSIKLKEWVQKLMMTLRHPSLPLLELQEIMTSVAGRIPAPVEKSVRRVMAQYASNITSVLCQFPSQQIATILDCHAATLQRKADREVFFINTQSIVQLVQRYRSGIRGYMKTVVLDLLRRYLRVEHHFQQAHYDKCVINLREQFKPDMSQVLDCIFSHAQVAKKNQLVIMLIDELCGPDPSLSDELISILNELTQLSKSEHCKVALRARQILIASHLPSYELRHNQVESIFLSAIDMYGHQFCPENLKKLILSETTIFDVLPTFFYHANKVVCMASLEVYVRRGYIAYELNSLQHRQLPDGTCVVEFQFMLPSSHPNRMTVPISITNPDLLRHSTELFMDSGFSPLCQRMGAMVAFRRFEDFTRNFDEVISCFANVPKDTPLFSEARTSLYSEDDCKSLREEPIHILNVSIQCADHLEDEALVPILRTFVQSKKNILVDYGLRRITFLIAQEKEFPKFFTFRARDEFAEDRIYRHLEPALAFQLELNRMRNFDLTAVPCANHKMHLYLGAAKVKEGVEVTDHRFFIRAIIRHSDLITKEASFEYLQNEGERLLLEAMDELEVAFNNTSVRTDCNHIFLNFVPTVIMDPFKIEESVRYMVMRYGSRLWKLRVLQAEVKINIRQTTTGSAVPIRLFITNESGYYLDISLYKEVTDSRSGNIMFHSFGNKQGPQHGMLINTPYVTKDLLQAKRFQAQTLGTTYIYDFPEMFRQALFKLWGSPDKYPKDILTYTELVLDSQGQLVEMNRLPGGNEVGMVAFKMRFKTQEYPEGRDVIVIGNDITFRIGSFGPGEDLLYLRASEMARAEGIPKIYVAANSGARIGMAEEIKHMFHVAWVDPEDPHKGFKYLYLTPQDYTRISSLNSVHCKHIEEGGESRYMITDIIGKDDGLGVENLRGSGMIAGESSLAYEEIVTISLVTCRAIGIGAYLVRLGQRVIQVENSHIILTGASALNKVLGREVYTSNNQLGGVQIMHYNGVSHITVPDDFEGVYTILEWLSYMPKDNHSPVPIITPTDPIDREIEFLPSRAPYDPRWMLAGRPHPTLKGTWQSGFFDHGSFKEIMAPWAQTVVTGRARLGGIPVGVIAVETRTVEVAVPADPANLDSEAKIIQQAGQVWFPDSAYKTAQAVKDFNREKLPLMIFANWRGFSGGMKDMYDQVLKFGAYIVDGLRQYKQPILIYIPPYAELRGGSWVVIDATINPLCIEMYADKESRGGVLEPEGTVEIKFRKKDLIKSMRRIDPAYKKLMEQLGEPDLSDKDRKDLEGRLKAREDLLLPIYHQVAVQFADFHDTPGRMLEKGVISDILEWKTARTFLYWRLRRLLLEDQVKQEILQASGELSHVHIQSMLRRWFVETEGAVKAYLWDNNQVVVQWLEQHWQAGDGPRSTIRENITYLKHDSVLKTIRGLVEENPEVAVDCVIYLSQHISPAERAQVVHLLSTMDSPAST

On to `CC(C)(C)OC(=O)NC[C@H]1CC[C@H](CNC(=O)c2cc(-c3ccc(N4CCC(C(N)=O)CC4)nc3)nc3ccccc23)CC1` [Example 153, tert-Butyl[(trans-4-{[({2-[6-(4-carbamoylpiperidin-1-yl)pyridin-3-yl]-quinolin-4-yl}carbonyl)amino]-methyl}cyclohexyl)methyl]carbamate], for which the IC50 was found to be 230 nM in assay [1] and 130 nM in assay [2].
Consider `CC(C)(C)OC(=O)NC[C@H]1CC[C@H](CNC(=O)c2cc(-c3ccc(N4CCNCC4)nc3)nc3ccccc23)CC1` [Example 154, tert-Butyl({trans-4-[({[2-(6-piperazin-1-ylpyridin-3-yl)-quinolin-4-yl]-carbonyl}amino)methyl]cyclohexyl}methyl)carbamate], for which the IC50 in assay [1] is 190 nM; in assay [2] it was 50 nM.
The like results for `CC(C)(C)OC(=O)NC[C@H]1CC[C@H](CNC(=O)c2cc(-c3ccc(NCCOCCO)nc3)nc3ccccc23)CC1` [Example 155, tert-Butyl({trans-4-[({[2-(6-{[2-(2-hydroxyethoxy)ethyl]amino}pyridin-3-yl)quinolin-4-yl]-carbonyl}amino)-methyl]cyclohexyl}methyl)carbamate] were, in that order, 1100 nM and 410 nM.
On to `COCCNc1ccc(-c2cc(C(=O)NC[C@H]3CC[C@H](CNC(=O)OC(C)(C)C)CC3)c3ccccc3n2)cn1` [Example 156, tert-Butyl{[trans-4-({[(2-{6-[(2-methoxyethyl)amino]pyridin-3-yl}quinolin-4-yl)carbonyl]amino}methyl)cyclohexyl]methyl}carbamate], for which the IC50 stood at 810 nM in assay [1] and 350 nM in assay [2].
On the same counts, the results for `Cc1cnc(CNc2ccc(-c3cc(C(=O)NC[C@H]4CC[C@H](CNC(=O)OC(C)(C)C)CC4)c4ccccc4n3)cn2)cn1` [Example 159, tert-Butyl({trans-4-[({[2-(6-{[(5-methylpyrazin-2-yl)methyl]amino}pyridin-3-yl)quinolin-4-yl]carbonyl}amino)methyl]cyclohexyl}methyl)carbamate] are 500 nM and 280 nM.
For `CN(C)[C@H]1CCN(c2ccc(-c3cc(C(=O)NC[C@H]4CC[C@H](CNC(=O)OC(C)(C)C)CC4)c4ccccc4n3)cn2)C1` [Example 160, tert-Butyl{[trans-4-({[(2-{6-[(3S)-3-(dimethylamino)-pyrrolidin-1-yl]pyridin-3-yl}quinolin-4-yl)-carbonyl]amino}methyl)cyclohexyl]methyl}carbamate], the IC50 amounted to 220 nM in assay [1] and 70 nM in assay [2].
Take `CC(C)(C)OC(=O)NC[C@H]1CC[C@H](CNC(=O)c2cc(-c3ccc(N4CCC(CO)CC4)nc3)nc3ccccc23)CC1` [Example 161, tert-Butyl{[trans-4-({[(2-{6-[4-(hydroxymethyl)piperidin-1-yl]pyridin-3-yl}-quinolin-4-yl)-carbonyl]amino}methyl)cyclohexyl]methyl}carbamate]: the IC50 in assay [1] came to 300 nM; in assay [2] it was 160 nM.
As to `CC(C)(C)OC(=O)NC[C@H]1CC[C@H](CNC(=O)c2cc(-c3ccc(N4CCC[C@H]4C(N)=O)nc3)nc3ccccc23)CC1` [Example 163, tert-Butyl{[trans-4-({[(2-{6-[(2S)-2-carbamoylpyrrolidin-1-yl]pyridin-3-yl}-quinolin-4-yl)-carbonyl]amino}methyl)cyclohexyl]methyl}-carbamate], the IC50 worked out at 1100 nM in assay [1] and 370 nM in assay [2].
For `CC(C)(C)OC(=O)NC[C@H]1CC[C@H](CNC(=O)c2cc(-c3ccc(NC(CO)CO)nc3)nc3ccccc23)CC1` [Example 164, tert-Butyl({trans-4-[({[2-(6-{[2-hydroxy-1-(hydroxymethyl)-ethyl]amino}pyridin-3-yl)quinolin-4-yl]-carbonyl}amino)methyl]cyclohexyl}methyl)-carbamate], the IC50 in assay [1] is 1260 nM; in assay [2], 330 nM.
In the case of `CC(C)(C)OC(=O)NC[C@H]1CC[C@H](CNC(=O)c2cc(-c3ccc(N4CCNC(=O)C4)nc3)nc3ccccc23)CC1` [Example 165, tert-Butyl[(trans-4-{[({2-[6-(3-oxopiperazin-1-yl)-pyridin-3-yl]quinolin-4-yl}carbonyl)amino]-methyl}cyclohexyl)methyl]carbamate], the values for the IC50 in assay [1] and in assay [2] were 540 nM and 160 nM, respectively.
For the compound `Cn1cc(CNc2ccc(-c3cc(C(=O)NC[C@H]4CC[C@H](CNC(=O)OC(C)(C)C)CC4)c4ccccc4n3)cn2)cn1` [Example 166, tert-Butyl({trans-4-[({[2-(6-{[(1-methyl-1H-pyrazol-4-yl)methyl]amino}-pyridin-3-yl)quinolin-4-yl]carbonyl}amino)-methyl]cyclohexyl}methyl)carbamate], the IC50 was found to be 820 nM in assay [1] and 410 nM in assay [2].
As to `CC(C)(C)OC(=O)NC[C@H]1CC[C@H](CNC(=O)c2cc(-c3ccc(NCCC(N)=O)nc3)nc3ccccc23)CC1` [Example 167, tert-Butyl{[trans-4-({[(2-{6-[(3-amino-3-oxopropyl)amino]pyridin-3-yl}quinolin-4-yl)-carbonyl]amino}methyl)cyclohexyl]methyl}carbamate], the IC50 is 4400 nM in assay [1] and 1580 nM in assay [2].
Take `CC(C)(C)OC(=O)NC[C@H]1CC[C@H](CNC(=O)c2cc(-c3ccc(N4CC(O)C4)nc3)nc3ccccc23)CC1` [Example 168, tert-Butyl[(trans-4-{[({2-[6-(3-hydroxyazetidin-1-yl)-pyridin-3-yl]quinolin-4-yl}carbonyl)amino]-methyl}cyclohexyl)methyl]carbamate]: the IC50 in assay [1] was 680 nM; in assay [2], 230 nM.
Turning to `CC[C@H](Nc1ccc(-c2cc(C(=O)NC[C@H]3CC[C@H](CNC(=O)OC(C)(C)C)CC3)c3ccccc3n2)cn1)C(N)=O` [Example 169, tert-Butyl({trans-4-[({[2-(6-{[(1S)-1-carbamoylpropyl]amino}pyridin-3-yl)-quinolin-4-yl]-carbonyl}amino)methyl]cyclohexyl}methyl)carbamate], the IC50 worked out at 1370 nM in assay [1] and 650 nM in assay [2].
Take `Cc1nc(CNc2ccc(-c3cc(C(=O)NC[C@H]4CC[C@H](CNC(=O)OC(C)(C)C)CC4)c4ccccc4n3)cn2)no1` [Example 170, tert-Butyl({trans-4-[({[2-(6-{[(5-methyl-1,2,4-oxadiazol-3-yl)methyl]amino}-pyridin-3-yl)quinolin-4-yl]carbonyl}amino)-methyl]cyclohexyl}-methyl)carbamate]: the concentration for half-maximal inhibition (IC50) in assay [1] stood at 1200 nM; in assay [2], 480 nM.
The like results for `CC(C)(C)OC(=O)NC[C@H]1CC[C@H](CNC(=O)c2cc(-c3ccc(N4CNC(=O)C4)nc3)nc3ccccc23)CC1` [Example 172, tert-Butyl[(trans-4-{[({2-[6-(4-oxoimidazolidin-1-yl)-pyridin-3-yl]quinolin-4-yl}carbonyl)amino]-methyl}cyclohexyl)-methyl]carbamate] were, in that order, 3500 nM and 160 nM.
On the same counts, the results for `CC(C)(C)OC(=O)NC[C@H]1CC[C@H](CNC(=O)c2cc(-c3ccc(OCCO)nc3)nc3ccccc23)CC1` [Example 174, tert-Butyl[(trans-4-{[({2-[6-(2-hydroxyethoxy)-pyridin-3-yl]-quinolin-4-yl}-carbonyl)amino]-methyl}cyclohexyl)methyl]carbamate] are 1000 nM and 340 nM.
